Assay results taken from patent US8497263B2, “Pyrrolinone derivative and pharmaceutical composition comprising the same” (Shionogi & Co., Ltd., priority 2007, dated 2013).

Compound | melting point
COc1ccc(C(=O)C2=C(O)C(=O)N(c3ccc(-c4ccon4)cc3)C2c2ccc(Cl)cc2)cc1 (centres unmarked) [Example I-11] | 268 to 270 °C (dec.)
COc1ccc(C(=O)C2=C(O)C(=O)N(c3ccc(-c4noc(C)n4)cc3)C2c2ccc(F)cc2)cc1 (centres unmarked) [Example I-14] | 236 to 239 °C
COc1ccc(C(=O)C2C(=O)C(=O)N(c3ccc(-c4ccon4)cc3)C2c2ccc(F)cc2)cc1 (centres unmarked) [Example I-18] | 269 to 274 °C (dec.)
COc1ccc(C(=O)C2=C(O)C(=O)N(c3ccc(-c4ccon4)cc3)C2c2cccc(F)c2)cc1 (centres unmarked) [Example I-26, 5-(3-fluorophenyl)-3-hydroxy-1-(4-isoxazol-3-ylphenyl)-4-(4-methoxybenzoyl)-1,5-dihydropyrrol-2-one] | 273 to 274 °C (dec.)
COc1ccc(C(=O)C2=C(O)C(=O)N(c3ccc(-c4ccon4)cc3)C2c2cccc(Cl)c2)cc1 (centres unmarked) [Example I-27] | 238 to 240 °C
COc1ccc(C(=O)C2=C(O)C(=O)N(c3ccc(-c4ccon4)cc3)C2c2ccccc2F)cc1 (centres unmarked) [Example I-31] | 270 to 271 °C (dec.)
COc1ccc(C(=O)C2C(=O)C(=O)N(c3ccc(-c4ccon4)cc3)C2c2ccccc2Cl)cc1 (centres unmarked) [Example I-40] | 254 to 258 °C (dec.)
COc1ccc(C(=O)C2=C(O)C(=O)N(c3ccc(-c4ccon4)cc3)C2c2cccc(OC)c2)cc1 (centres unmarked) [Example I-46] | 238 to 240 °C
COc1ccc(C(=O)C2=C(O)C(=O)N(c3ccc(-c4ccon4)cc3)C2c2ccccc2)cc1 (centres unmarked) [Example I-50] | 271 to 274 °C
COc1ccc(C(=O)C2C(=O)C(=O)N(c3ccc(-c4cnco4)cc3)C2c2ccc(F)cc2)cc1 (centres unmarked) [Example I-64] | 245 to 246 °C
COc1ccc(C(=O)C2C(=O)C(=O)N(c3ccc(OC)cc3)C2c2ccc(F)cc2)cc1 (centres unmarked) [Example I-73] | 245 to 247 °C
COc1ccc(C(=O)C2C(=O)C(=O)N(c3ccc(-c4cnco4)cc3)C2c2ccccc2)cc1 (centres unmarked) [Example I-78] | 253 to 254 °C
COc1ccc(C(=O)C2=C(O)C(=O)N(c3cccc(-c4ccon4)c3)C2c2ccc(F)cc2)cc1 (centres unmarked) [Example I-185] | 193 to 196 °C
CCC(CC)C1c2c(-c3ccc(=O)[nH]c3)n[nH]c2C(=O)N1c1ccc(-c2ccon2)cc1 (centres unmarked) [Example I-198, 4-(1-ethylpropyl)-5-(4-isoxazol-3-ylphenyl)-3-(6-oxo-1,6-dihydropyridin-3-yl)-4,5-dihydro-1H-pyrrolo[3,4-c]pyrazol-6-one] | > 290 °C
COc1ccc(C2C(Cc3ccccc3)=C(O)C(=O)N2c2ccc(F)cc2)cc1 (centres unmarked) [Example I-202] | 177 to 178 °C
CCOC(=O)c1ccc(N2C(=O)C(O)=C(Cc3ccccc3)C2c2ccc(OC)cc2)cc1 (centres unmarked) [Example I-203] | 160 to 161 °C
COc1ccc(-c2n[nH]c3c2C(c2ccc(F)cc2)N(c2ccc(-c4ccon4)cc2)C3=O)cc1 (centres unmarked) [Example I-210] | 164 to 166 °C
CCC(CC)C1c2c(-c3ccc(OC)nc3)n[nH]c2C(=O)N1c1ccc(-c2ccon2)cc1 (centres unmarked) [Example I-211] | 226 to 228 °C
COc1ccc(C(=O)C2=C(O)C(=O)N(c3ccc(-c4nnco4)cc3)C2c2ccc(F)cc2)cc1 (centres unmarked) [Example I-213] | 244 to 247 °C
CCCCC(CCCC)C1C(C(=O)c2ccc(OC)cc2)=C(O)C(=O)N1c1ccc(-c2ccon2)cc1 (centres unmarked) [Example I-215] | 207 to 210 °C
COc1ccc(C(=O)C2=C(O)C(=O)N(c3ccc(-c4cc(C)no4)cc3)C2c2ccc(F)cc2)cc1 (centres unmarked) [Example I-219] | 249 to 252 °C
COc1ccc(C(=O)C2=C(O)C(=O)N(c3ccc(-c4ccon4)cc3)C2C(C)c2ccccc2)cc1 (centres unmarked) [Example I-221] | 241 to 244 °C
CCOC(=O)c1ccc(N2C(=O)C(OCc3ccccc3)=C(C(=NO)c3ccc(OC)cc3)C2c2ccccc2)cc1 (centres unmarked) [Example I-225] | 196 to 201 °C
CCOC(=O)c1ccc(N2C(=O)/C(=N\O)C(/C(=N\O)c3ccc(OC)cc3)C2c2ccccc2)cc1 (centres unmarked) [Example I-226] | 219 to 221 °C (dec.)

The next lines start with the values.

melting point | Compound
259 to 260 °C | CC(C)(C)C(=O)C1=C(O)C(=O)N(c2ccc(-c3ccon3)cc2)C1C1CCCCC1 (centres unmarked) [Example I-32, 5-cyclohexyl-4-(2,2-dimethylpropionoyl)-3-hydroxy-1-(4-isoxazol-3-ylphenyl)-1,5-dihydropyrrol-2-one]
253 to 256 °C (dec.) | COc1ccc(C(=O)C2=C(O)C(=O)N(c3ccc(C(F)(F)F)cc3)C2c2ccc(F)cc2)cc1 (centres unmarked) [Example I-34]
238 to 239 °C | CC(C)(C)C(=O)C1=C(O)C(=O)N(c2ccc(C(F)(F)F)cc2)C1C1CCCCC1 (centres unmarked) [Example I-56]
268 to 271 °C | COc1ccc(C(=O)C2=C(O)C(=O)N(c3ccc(C(=O)O)cc3)C2c2ccccc2)cc1 (centres unmarked) [Example I-87]
255 to 256 °C | CC(C)(C)C(=O)C1/C(=N/O)C(=O)N(c2ccc(-c3ccon3)cc2)C1C1CCCCC1 (centres unmarked) [Example I-193]
245 to 246 °C | CC(C)(C)c1n[nH]c2c1C(C1CCCCC1)N(c1ccc(C(F)(F)F)cc1)C2=O (centres unmarked) [Example I-194]
234 to 237 °C | COc1ccc(C(=O)C2=C(O)C(=O)N(Cc3ccc(C(F)(F)F)cc3)C2c2ccc(F)cc2)cc1 (centres unmarked) [Example I-204]
246 to 249 °C | CCC(CC)C1C(C(=O)c2ccc(OC)nc2)=C(O)C(=O)N1c1ccc(-c2ccon2)cc1 (centres unmarked) [Example I-207]
> 290 °C | CCC(CC)C1C(C(=O)c2ccc(=O)[nH]c2)=C(O)C(=O)N1c1ccc(-c2ccon2)cc1 (centres unmarked) [Example I-208]
232 to 235 °C | CO/N=C/c1ccc(N2C(=O)C(O)=C(C(=O)c3ccc(OC)cc3)C2c2ccc(F)cc2)cc1 (centres unmarked) [Example I-209]
227 to 232 °C | CCCC(C)C1C(C(=O)c2ccc(OC)cc2)=C(O)C(=O)N1c1ccc(-c2ccon2)cc1 (centres unmarked) [Example I-214]
229 to 232 °C | COc1ccc(C(=O)C2=C(O)C(=O)N(c3ccc(C4=NCCS4)cc3)C2c2ccc(F)cc2)cc1 (centres unmarked) [Example I-216]
173 to 174 °C | COc1ccc(C(=O)C2=C(OCc3ccccc3)C(=O)N(c3ccc(C(F)(F)F)cc3)C2c2ccccc2)cc1 (centres unmarked) [Example I-217]
229 to 231 °C | CCCC(CCC)C1C(C(=O)c2ccc(OC)cc2)=C(O)C(=O)N1c1ccc(-c2ccon2)cc1 (centres unmarked) [Example I-220]
247 to 249 °C | COc1ccc(C(=O)C2=C(O)C(=O)N(c3ccc(-c4ccon4)cc3)C2C2CCN(C(=O)OC(C)(C)C)CC2)cc1 (centres unmarked) [Example I-222]
268 to 272 °C | COc1ccc(C(=O)C2=C(O)C(=O)N(c3ccc(-c4ccon4)cc3)C2C2CCOCC2)cc1 (centres unmarked) [Example I-224]
221 to 224 °C | CO/N=C(\C)c1ccc(N2C(=O)C(O)=C(C(=O)c3ccc(OC)cc3)C2c2ccc(F)cc2)cc1 (centres unmarked) [Example I-227]
217 to 218 °C | COc1ccc(-c2n[nH]c3c2C(c2ccc(F)cc2)N(c2ccc(C(F)(F)F)cc2)C3=O)cc1 (centres unmarked) [Example I-228]
213 to 215 °C | COc1ccc(C2=NCCNC3=C2C(c2ccc(F)cc2)N(c2ccc(C(F)(F)F)cc2)C3=O)cc1 (centres unmarked) [Example I-229]
229 to 230 °C | CC(C)(C)C1=NCCNC2=C1C(C1CCCCC1)N(c1ccc(-c3ccon3)cc1)C2=O (centres unmarked) [Example I-230]
